Source: ChEMBL document CHEMBL4831516, “Development of Membrane-Active Honokiol/Magnolol Amphiphiles as Potent Antibacterial Agents against Methicillin-Resistant Staphylococcus aureus (MRSA)” (J Med Chem, 2021)
Values after ≈ are worked out from the molar mass of the structure shown.

What was measured:
[1] = test system: Stenotrophomonas maltophilia; assay: Antibacterial activity against Stenotrophomonas maltophilia assessed as inhibition of visible growth incubated for 16 to 18 hrs by CLSI method; type: functional; settings: time 16-18 hrs, read-out: MIC100
Staphylococcus aureus [2] = assay: Antibacterial activity against methicillin-resistant Staphylococcus aureus clinical isolate M-15 assessed as inhibition of visible growth incubated for 16 to 18 hrs by CLSI method; type: functional; settings: time 16-18 hrs, read-out: MIC100
Staphylococcus aureus [3] = assay: Antibacterial activity against methicillin-resistant Staphylococcus aureus clinical isolate M-11 assessed as inhibition of visible growth incubated for 16 to 18 hrs by CLSI method; type: functional; settings: time 16-18 hrs, read-out: MIC100
[4] = Selectivity index, HC50 for hemolytic activity in sheep RBC to MIC for antibacterial activity against Staphylococcus aureus ATCC29213; type: toxicity; settings: sheep red blood cells (erythrocytes), read-out: Selectivity Index
Escherichia coli = assay: Antibacterial activity against Escherichia coli ATCC25922 assessed as inhibition of visible growth incubated for 16 to 18 hrs by CLSI method; type: functional; settings: time 16-18 hrs, read-out: MIC100
Staphylococcus aureus [5] = assay: Antibacterial activity against methicillin-resistant Staphylococcus aureus clinical isolate M-20 assessed as inhibition of visible growth incubated for 16 to 18 hrs by CLSI method; type: functional; settings: time 16-18 hrs, read-out: MIC100
Staphylococcus aureus [6] = assay: Antibacterial activity against methicillin-resistant Staphylococcus aureus clinical isolate M-14 assessed as inhibition of visible growth incubated for 16 to 18 hrs by CLSI method; type: functional; settings: time 16-18 hrs, read-out: MIC100
Salmonella enterica [7] = assay: Antibacterial activity against Salmonella enterica 349812 assessed as inhibition of visible growth incubated for 16 to 18 hrs by CLSI method; type: functional; settings: time 16-18 hrs, read-out: MIC100
[8] = Hemolytic activity in sheep RBC assessed as hemolysis incubated for 1 hr; type: ADME, cell-based, Ovis aries, Erythrocyte; settings: sheep red blood cells (erythrocytes)
Enterococcus faecalis = assay: Antibacterial activity against Enterococcus faecalis ATCC29212 assessed as inhibition of visible growth incubated for 16 to 18 hrs by CLSI method; type: functional; settings: time 16-18 hrs, read-out: MIC100
Staphylococcus aureus [9] = assay: Antibacterial activity against methicillin-resistant Staphylococcus aureus clinical isolate M-19 assessed as inhibition of visible growth incubated for 16 to 18 hrs by CLSI method; type: functional; settings: time 16-18 hrs, read-out: MIC100
Salmonella enterica [10] = assay: Antibacterial activity against Salmonella enterica 8389 assessed as inhibition of visible growth incubated for 16 to 18 hrs by CLSI method; type: functional; settings: time 16-18 hrs, read-out: MIC100
Staphylococcus aureus [11] = assay: Antibacterial activity against methicillin-resistant Staphylococcus aureus clinical isolate M-16 assessed as inhibition of visible growth incubated for 16 to 18 hrs by CLSI method; type: functional; settings: time 16-18 hrs, read-out: MIC100
Staphylococcus aureus [12] = assay: Antibacterial activity against methicillin-resistant Staphylococcus aureus clinical isolate M-13 assessed as inhibition of visible growth incubated for 16 to 18 hrs by CLSI method; type: functional; settings: time 16-18 hrs, read-out: MIC100
Staphylococcus aureus [13] = assay: Antibacterial activity against methicillin-resistant Staphylococcus aureus clinical isolate M-12 assessed as inhibition of visible growth incubated for 16 to 18 hrs by CLSI method; type: functional; settings: time 16-18 hrs, read-out: MIC100
Bacillus subtilis = assay: Antibacterial activity against Bacillus subtilis assessed as inhibition of visible growth incubated for 16 to 18 hrs by CLSI method; type: functional; settings: time 16-18 hrs, read-out: MIC100
Micrococcus luteus = assay: Antibacterial activity against Micrococcus luteus assessed as inhibition of visible growth incubated for 16 to 18 hrs by CLSI method; type: functional; settings: time 16-18 hrs, read-out: MIC100
Staphylococcus aureus [14] = assay: Antibacterial activity against Staphylococcus aureus ATCC29213 assessed as inhibition of visible growth incubated for 16 to 18 hrs by CLSI method; type: functional; settings: time 16-18 hrs, read-out: MIC100
Staphylococcus aureus [15] = assay: Antibacterial activity against methicillin-resistant Staphylococcus aureus clinical isolate M-18 assessed as inhibition of visible growth incubated for 16 to 18 hrs by CLSI method; type: functional; settings: time 16-18 hrs, read-out: MIC100
Staphylococcus aureus [16] = assay: Antibacterial activity against methicillin-resistant Staphylococcus aureus clinical isolate M-17 assessed as inhibition of visible growth incubated for 16 to 18 hrs by CLSI method; type: functional; settings: time 16-18 hrs, read-out: MIC100

| SMILES | MIC [1] | MIC (Staphylococcus aureus [2]) | MIC (Staphylococcus aureus [3]) | selectivity ratio [4] | MIC (Escherichia coli) | MIC (Staphylococcus aureus [5]) | MIC (Staphylococcus aureus [6]) | MIC (Salmonella enterica [7]) | HC50 at 1 h [8] | MIC (Enterococcus faecalis) | MIC (Staphylococcus aureus [9]) | MIC (Salmonella enterica [10]) | MIC (Staphylococcus aureus [11]) | MIC (Staphylococcus aureus [12]) | MIC (Staphylococcus aureus [13]) | MIC (Bacillus subtilis) | MIC (Micrococcus luteus) | MIC (Staphylococcus aureus [14]) | MIC (Staphylococcus aureus [15]) | MIC (Staphylococcus aureus [16]) |
| --- | --- | --- | --- | --- | --- | --- | --- | --- | --- | --- | --- | --- | --- | --- | --- | --- | --- | --- | --- | --- |
| C=CCc1ccc(OCCC[N+](C)(C)CC(=O)NCC)c(-c2ccc(OCCC[N+](C)(C)CC(=O)NCC)c(CC=C)c2)c1.[Br-].[Br-] | 32 µg/mL | 4 µg/mL | 8 µg/mL | 567 | 16 µg/mL | 4 µg/mL | 9 µg/mL | 64 µg/mL | 1130 µg/mL | 4 µg/mL | 4 µg/mL | 32 µg/mL | 2 µg/mL | 4 µg/mL | 4 µg/mL | 4 µg/mL | 4 µg/mL | 2 µg/mL | 4 µg/mL | 4 µg/mL |
| C=CCc1ccc(OCCC[N+](C)(C)CC(=O)NCCCCCC)c(-c2ccc(OCCC[N+](C)(C)CC(=O)NCCCCCC)c(CC=C)c2)c1.[Br-].[Br-] | 8 µg/mL | 4 µg/mL | 4 µg/mL | 269 | 8 µg/mL | 4 µg/mL | 4 µg/mL | 4 µg/mL | 1080 µg/mL | 4 µg/mL | 4 µg/mL | 2 µg/mL | 4 µg/mL | 4 µg/mL | 4 µg/mL | 2 µg/mL | 2 µg/mL | 4 µg/mL | 4 µg/mL | 4 µg/mL |
| C=CCc1ccc(OCCC[N+](C)(C)CC(=O)NCCC)c(-c2ccc(OCCC[N+](C)(C)CC(=O)NCCC)c(CC=C)c2)c1.[Br-].[Br-] | 16 µg/mL | 2 µg/mL | 4 µg/mL | 341 | 16 µg/mL | 2 µg/mL | 2 µg/mL | 32 µg/mL | 682 µg/mL | 2 µg/mL | 4 µg/mL | 32 µg/mL | 2 µg/mL | 4 µg/mL | 4 µg/mL | 1 µg/mL | 4 µg/mL | 2 µg/mL | 4 µg/mL | 4 µg/mL |
| C=CCc1ccc(OCC[N+](C)(C)CC(=O)NCC)c(-c2ccc(OCC[N+](C)(C)CC(=O)NCC)c(CC=C)c2)c1.[Br-].[Br-] | 32 µg/mL | 4 µg/mL | 8 µg/mL | 79.9 | 32 µg/mL | 4 µg/mL | 4 µg/mL | 32 µg/mL | 639 µg/mL | 8 µg/mL | 4 µg/mL | 64 µg/mL | 4 µg/mL | 8 µg/mL | 8 µg/mL | 4 µg/mL | 4 µg/mL | 8 µg/mL | 4 µg/mL | 4 µg/mL |
| C=CCc1ccc(OCC[N+](C)(C)CC(=O)NCCCC)c(-c2ccc(OCC[N+](C)(C)CC(=O)NCCCC)c(CC=C)c2)c1.[Br-].[Br-] | 32 µg/mL | 8 µg/mL | 4 µg/mL | 208 | 64 µg/mL | 8 µg/mL | 4 µg/mL | 64 µg/mL | 832 µg/mL | 8 µg/mL | 4 µg/mL | 32 µg/mL | 8 µg/mL | 4 µg/mL | 4 µg/mL | 2 µg/mL | 4 µg/mL | 4 µg/mL | 4 µg/mL | 8 µg/mL |
| C[C@H]1COc2c(N3CCN(C)CC3)c(F)cc3c(=O)c(C(=O)O)cn1c23.C[C@H]1COc2c(N3CCN(C)CC3)c(F)cc3c(=O)c(C(=O)O)cn1c23.O [LEVOFLOXACIN] | 0.5 µg/mL | 1 µg/mL | 1 µg/mL | – | – | 1 µg/mL | 1 µg/mL | 0.25 µg/mL | – | 0.25 µg/mL | 1 µg/mL | 0.25 µg/mL | 1 µg/mL | 5 µg/mL | 1 µg/mL | 0.5 µg/mL | 0.25 µg/mL | 0.5 µg/mL | 0.5 µg/mL | 5 µg/mL |
| C=CCc1ccc(OCCCC[N+](C)(C)CC(=O)NCCCCCC)c(-c2ccc(OCCCC[N+](C)(C)CC(=O)NCCCCCC)c(CC=C)c2)c1.[Br-].[Br-] | 8 µg/mL | 8 µg/mL | 2 µg/mL | 143 | 16 µg/mL | 4 µg/mL | 8 µg/mL | 16 µg/mL | 573 µg/mL | 2 µg/mL | 4 µg/mL | 8 µg/mL | 8 µg/mL | 2 µg/mL | 2 µg/mL | 4 µg/mL | 2 µg/mL | 4 µg/mL | 4 µg/mL | 4 µg/mL |
| C=CCc1ccc(O)c(-c2ccc(O)c(CC=C)c2)c1 [HONOKIOL] | > 128 µg/mL | – | – | – | > 128 µg/mL | – | – | > 128 µg/mL | 534 µg/mL | 64 µg/mL (≈ 240 µM) | – | > 128 µg/mL | – | – | – | 32 µg/mL (≈ 120 µM) | 32 µg/mL (≈ 120 µM) | 64 µg/mL (≈ 240 µM) | – | – |
| CN(C)c1cc(NC(=O)CNC(C)(C)C)c(O)c2c1C[C@H]1C[C@H]3[C@H](N(C)C)C(O)=C(C(N)=O)C(=O)[C@@]3(O)C(O)=C1C2=O [TIGECYCLINE] | – | 0.5 µg/mL (≈ 0.854 µM) | 0.5 µg/mL (≈ 0.854 µM) | – | – | 0.5 µg/mL (≈ 0.854 µM) | 1 µg/mL (≈ 1.71 µM) | – | – | – | 0.5 µg/mL (≈ 0.854 µM) | – | 0.25 µg/mL (≈ 0.427 µM) | 1 µg/mL (≈ 1.71 µM) | 1 µg/mL (≈ 1.71 µM) | – | – | – | 0.25 µg/mL (≈ 0.427 µM) | 0.5 µg/mL (≈ 0.854 µM) |
| CN[C@H](CC(C)C)C(=O)N[C@H]1C(=O)N[C@@H](CC(N)=O)C(=O)N[C@H]2C(=O)N[C@H]3C(=O)N[C@H](C(=O)N[C@H](C(=O)O)c4cc(O)cc(O)c4-c4cc3ccc4O)[C@H](O)c3ccc(c(Cl)c3)Oc3cc2cc(c3O[C@@H]2O[C@H](CO)[C@@H](O)[C@H](O)[C@H]2O[C@H]2C[C@](C)(N)[C@H](O)[C@H](C)O2)Oc2ccc(cc2Cl)[C@H]1O [VANCOMYCIN] | – | – | – | – | – | – | – | – | – | 2 µg/mL (≈ 1.38 µM) | – | – | – | – | – | 0.25 µg/mL (≈ 0.173 µM) | 0.5 µg/mL (≈ 0.345 µM) | – | – | – |
| C=CCc1ccc(O)c(-c2cc(CC=C)ccc2O)c1 [MAGNOLOL] | > 128 µg/mL | – | – | – | > 128 µg/mL | – | – | > 128 µg/mL | 463 µg/mL | 64 µg/mL (≈ 240 µM) | – | > 128 µg/mL | – | – | – | 16 µg/mL (≈ 60.1 µM) | 16 µg/mL (≈ 60.1 µM) | 32 µg/mL (≈ 120 µM) | – | – |
